Experimental data: patent US8933233B2, “1,3,4-oxadiazole and 1,3,4-thiadiazole β-lactamase inhibitors” (priority 2012, dated 2015)
Counter-ions that a name gives are not always drawn.

Experiments:
[1] = system: bacterial strains that express the class D cephalosporinase OXA-15; assay: Synergy MIC / standard BLI potentiation MIC assay, strains expressing OXA-15; assay type: cell-based, E. coli; conditions: in presence of a β-lactam; comparator Avibactam (CCC)
Outline: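 Broth microdilution in CAMHB per CLSI M07-A9, ~10^5 CFU/mL inoculum, 18–20 h at 37 °C with aeration; engineered E. coli kept with 25 μg/mL tetracycline. β-lactam 2-fold from 128 to 0.13 μg/mL with BLI fixed at 4 μg/mL, or BLI serially diluted with β-lactam fixed; MIC is lowest concentration without visible turbidity.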

[2] = system: bacterial strains that express KPC β-lactamases; assay: Synergy MIC / standard BLI potentiation MIC assay, strains expressing KPC β-lactamases; assay type: cell-based, isogenic E. coli and clinical isolates; conditions: more active for at least one KPC strain and/or better spectrum; comparator Avibactam
Protocol: Unless otherwise indicated, the activity of the BLI compounds can be described by the MIC value obtained from a Synergy MIC assay or a BLI potentiation assay (e.g as described herein), both of which are run in the presence of a β-lactam.
The experimental protocol was performed according to Clinical and Laboratory Standards Institute (CLSI) guidelines with modifications as described below (CLSI guidelines can be derived from the CLSI document M07-A9 published in January 2012: “Methods for Dilution Antimicrobial Susceptibility Tests for Bacteria That Grow Aerobically; Approved Standard-Ninth Edition”).
To prepare for MIC testing, frozen glycerol stocks of clinical isolates (Klebsiella pneumoniae, Eschericia coli, Enterobacter spp, Citrobacter spp, or Pseudomonas aeruginosa) were used to streak for isolated colonies on rich, non-selective, tryptic soy agar containing 5% sheep's blood (TSAB). Frozen glycerol stocks of laboratory engineered, isogenic E. coli strains, which contain cloned β-lactamase expressing plasmids were used to streak for isolated colonies on rich, selective LB agar supplemented with 25 μg/mL tetracycline to maintain the plasmid. All strains were incubated at 37° C. for 18-24 hrs.
On the day of testing, primary cultures were started by scraping off 5-10 colonies from the TSAB plates containing clinical strains or the tetracycline supplemented LB plates containing engineered strains. The clinical strain material was suspended in ˜5 mL of cation adjusted Mueller Hinton Broth (CAMHB) in 14 mL culture tubes. The engineered strain material was suspended in CAMHB (supplemented with 25 μg/mL tetracycline) in 14 mL culture tubes. All strains were incubated at 37° C. with aeration (200 rpm) for ˜2 hrs until the optical density at 600 nm (OD600) was ≧0.1.
The two compound components of the assay were each diluted in CAMHB and added to the 96-well broth microdilution assay plates. 50 μL of the β-lactam was added to each well of the assay plate in 2-fold dilutions with final concentrations ranging from 128 to 0.13 μg/mL. 25 μL of the BLI compound was added to all wells in the broth microdilution plates at a final concentration of 4 μg/mL. Inoculum cultures were prepared by standardizing the primary cultures to OD600=0.1 and then adding 20 μL of the adjusted primary culture per 1 mL CAMHB for clinical strains or CAMHB (supplemented with tetracycline at 100 μg/mL) for engineered strains, so that the final inoculum density was ˜10^5 colony forming units per milliliter. Diluted inoculum cultures were used to inoculate 25 μL per well in 96-well broth microdilution assay plates. The final volume of each well was 100 μL and contained a β-lactam at different concentrations, a BLIcompound at 4 μg/mL concentration, the bacterial culture at an OD600 of approximately 0.001 and when necessary tetracycline at 25 μg/mL.
Plates were incubated for 18-20 hours at 37° C. with aeration (200 rpm). Following incubation, growth was confirmed visually placing plates over a viewing apparatus (stand with a mirror underneath) and then OD600 was measured using a SpectraMax 340PC384 plate reader (Molecular Devices, Sunnyvale, Calif.). Growth was defined as turbidity that could be detected with the naked eye or achieving minimum OD600 of 0.1. MIC values were defined as the lowest concentration producing no visible turbidity.
The synergy MIC (sMIC) assay determines the concentration of the BLI required to potentiate the activity of a fixed concentration of a β-lactam antibiotic against β-lactamase producing bacterial strains. The experimental protocol was performed according to Clinical and Laboratory Standards Institute (CLSI) guidelines with modifications as described below (CLSI guidelines can be derived from the CLSI document M07-A9 published in January 2012: “Methods for Dilution Antimicrobial Susceptibility Tests for Bacteria That Grow Aerobically; Approved Standard-Ninth Edition”). […]

SMILES	activity against bacterial strains that express OXA-15, compared with Avibactam [1]	activity and/or spectrum of activity against bacterial strains that express KPC β-lactamases, compared with Avibactam [2]
N=C(N)Nc1nnc([C@@H]2CC[C@@H]3CN2C(=O)N3OS(=O)(=O)O)o1 [Compound 738, (2S,5R)-2-(5-guanidino-1,3,4-oxadiazol-2-yl)-7-oxo-1,6-diazabicyclo[3.2.1]octan-6-yl hydrogen sulfate]	more active than Avibactam	more active than Avibactam
N=C(N)NC1(Cc2nnc([C@@H]3CC[C@@H]4CN3C(=O)N4OS(=O)(=O)O)o2)CC1 [Compound 739, (2S,5R)-2-(5-((1-guanidinocyclopropyl)methyl)-1,3,4-oxadiazol-2-yl)-7-oxo-1,6-diazabicyclo[3.2.1]octan-6-yl hydrogen sulfate]	more active than Avibactam	more active than Avibactam
O=C1N2C[C@@H](CC[C@H]2c2nnc([C@H]3[C@@H]4CNC[C@@H]43)o2)N1OS(=O)(=O)O [Compound 740, (2S,5R)-2-(5-(3-azabicyclo[3.1.0]hexan-6-yl)-1,3,4-oxadiazol-2-yl)-7-oxo-1,6-diazabicyclo[3.2.1]octan-6-yl hydrogen sulfate]	more active than Avibactam	more active than Avibactam
N=C(N)N1CC(Cc2nnc([C@@H]3CC[C@@H]4CN3C(=O)N4OS(=O)(=O)O)o2)C1 [Compound 741, (2S,5R)-2-(5-((1-carbamimidoylazetidin-3-yl)methyl)-1,3,4-oxadiazol-2-yl)-7-oxo-1,6-diazabicyclo[3.2.1]octan-6-yl hydrogen sulfate]	more active than Avibactam	more active than Avibactam
O=C1N2C[C@@H](CC[C@H]2c2nnc(CCC3CNC3)o2)N1OS(=O)(=O)O [Compound 742, (2S,5R)-2-(5-(2-(azetidin-3-yl)ethyl)-1,3,4-oxadiazol-2-yl)-7-oxo-1,6-diazabicyclo[3.2.1]octan-6-yl hydrogen sulfate]	more active than Avibactam	more active than Avibactam
O=C1N2C[C@@H](CC[C@H]2c2nnc(CCCC3CNC3)o2)N1OS(=O)(=O)O [Compound 743, (2S,5R)-2-(5-(3-(azetidin-3-yl)propyl)-1,3,4-oxadiazol-2-yl)-7-oxo-1,6-diazabicyclo[3.2.1]octan-6-yl hydrogen sulfate]	more active than Avibactam	more active than Avibactam
O=C1N2C[C@@H](CC[C@H]2c2nnc(COC3CNC3)o2)N1OS(=O)(=O)O [Compound 744, (2S,5R)-2-(5-((azetidin-3-yloxy)methyl)-1,3,4-oxadiazol-2-yl)-7-oxo-1,6-diazabicyclo[3.2.1]octan-6-yl hydrogen sulfate]	more active than Avibactam	more active than Avibactam
O=C1N2C[C@@H](CC[C@H]2c2nnc(CCNC3CNC3)o2)N1OS(=O)(=O)O [Compound 745, (2S,5R)-2-(5-(2-(azetidin-3-ylamino)ethyl)-1,3,4-oxadiazol-2-yl)-7-oxo-1,6-diazabicyclo[3.2.1]octan-6-yl hydrogen sulfate]	more active than Avibactam	more active than Avibactam
N=C(N)N1CC(NCc2nnc([C@@H]3CC[C@@H]4CN3C(=O)N4OS(=O)(=O)O)o2)C1 [Compound 746, (2S,5R)-2-(5-(((1-carbamimidoylazetidin-3-yl)amino)methyl)-1,3,4-oxadiazol-2-yl)-7-oxo-1,6-diazabicyclo[3.2.1]octan-6-yl hydrogen sulfate]	more active than Avibactam	more active than Avibactam
N=C(N)N[C@H]1C[C@@H](c2nnc([C@@H]3CC[C@@H]4CN3C(=O)N4OS(=O)(=O)O)o2)C1 [Compound 749, 2S,5R)-2-(5-((1s,3R)-3-guanidinocyclobutyl)-1,3,4-oxadiazol-2-yl)-7-oxo-1,6-diazabicyclo[3.2.1]octan-6-yl hydrogen sulfate]	more active than Avibactam	more active than Avibactam
O=C1N2C[C@@H](CC[C@H]2c2nnc(C3CC4(CNC4)C3)o2)N1OS(=O)(=O)O [Compound 750, (2S,5R)-2-(5-(2-azaspiro[3.3]heptan-6-yl)-1,3,4-oxadiazol-2-yl)-7-oxo-1,6-diazabicyclo[3.2.1]octan-6-yl hydrogen sulfate]	more active than Avibactam	more active than Avibactam
N[C@H]1C[C@H](Cc2nnc([C@@H]3CC[C@@H]4CN3C(=O)N4OS(=O)(=O)O)o2)C1 [Compound 751, (2S,5R)-2-(5-(((1r,3S)-3-aminocyclobutyl)methyl)-1,3,4-oxadiazol-2-yl)-7-oxo-1,6-diazabicyclo[3.2.1]octan-6-yl hydrogen sulfate]	more active than Avibactam	more active than Avibactam
N=C(N)NC1CC(Cc2nnc([C@@H]3CC[C@@H]4CN3C(=O)N4OS(=O)(=O)O)o2)C1 (stereo partly drawn) [Compound 752, (2S,5R)-2-(5-((3-guanidinocyclobutyl)methyl)-1,3,4-oxadiazol-2-yl)-7-oxo-1,6-diazabicyclo[3.2.1]octan-6-yl hydrogen sulfate]	more active than Avibactam	more active than Avibactam
N[C@H]1C[C@H](CCc2nnc([C@@H]3CC[C@@H]4CN3C(=O)N4OS(=O)(=O)O)o2)C1 [Compound 753, (2S,5R)-2-(5-(2-((1r,3R)-3-aminocyclobutyl)ethyl)-1,3,4-oxadiazol-2-yl)-7-oxo-1,6-diazabicyclo[3.2.1]octan-6-yl hydrogen sulfate]	more active than Avibactam	more active than Avibactam
N[C@H]1C[C@@H](CCc2nnc([C@@H]3CC[C@@H]4CN3C(=O)N4OS(=O)(=O)O)o2)C1 [Compound 754, (2S,5R)-2-(5-(2-((1s,3S)-3-aminocyclobutyl)ethyl)-1,3,4-oxadiazol-2-yl)-7-oxo-1,6-diazabicyclo[3.2.1]octan-6-yl hydrogen sulfate]	more active than Avibactam	more active than Avibactam
